Data from ChEMBL document CHEMBL4376829, “Discovery and biological evaluation of vinylsulfonamide derivatives as highly potent, covalent TEAD autopalmitoylation inhibitors” (Eur J Med Chem, 2019).
Active and inactive are the calls of the source. No cut-off for these calls is given here.

Assays:
[1] = molecular target: Tyrosine-protein kinase JAK3 (Homo sapiens) (UniProt P52333); experiment: Inhibition of recombinant human JAK3 (781 to end residues) at 10 uM using GGEEEEYFELVKKKK as substrate measured after 40 mins in presence of [gamm33P]ATP by scintillation counting method relative to control
[2] = molecular target: Transcription initiation factor TFIID subunit 1-like (Homo sapiens) (UniProt Q8IZX4); experiment: Inhibition of recombinant human TAF1L (1428 to end residues) at 10 uM using RRRFRPASPLRGPPK as substrate measured after 120 mins in presence of [gamma33P]ATP by scintillation counting method relative to control
[3] = molecular target: Serine-protein kinase ATM (Homo sapiens) (UniProt Q13315); experiment: Inhibition of recombinant full-length human ATM at 10 uM using GST-cMyc-p53 as substrate measured after 40 mins by EIA method relative to control
[4] = molecular target: Calcium/calmodulin-dependent protein kinase type IV (Homo sapiens) (UniProt Q16566); experiment: Inhibition of full-length recombinant human Camk4 at 10 uM using calmodulin as substrate after 40 mins by in presence of [gamma33P]ATP by scintillation counting method relative to control
[5] = molecular target: NUAK family SNF1-like kinase 2 (Homo sapiens) (UniProt Q9H093); experiment: Inhibition of recombinant human full length NUAK2 at 10 uM using KKKVSRSGLYRSPSMPENLNRPR as substrate incubated for 40 mins in presence of [gamma-33P]-ATP by scintillation counting method relative to control
[6] = molecular target: T1, Transcriptional enhancer factor TEF-3 (Homo sapiens, UniProt Q15561); experiment: Inhibition of N-terminal His6 tagged human TEAD4-YBD (217 to 434 residues) expressed in Escherichia coli C43 (DE3) cells assessed as reduction in autopalmitoylation preincubated for 2 hrs followed by palmitoyl alkyne-coenzyme A addition and measured after 30 mins by immunoblot analysis
[7] = molecular target: Fatty acid-binding protein, adipocyte (Homo sapiens) (UniProt P15090); experiment: Binding affinity to FABP4 (unknown origin) at 1:1 ratio by fluorescence based thermal shift assay
[8] = molecular target: Proto-oncogene tyrosine-protein kinase Src (Homo sapiens) (UniProt P12931); experiment: Inhibition of recombinant human Src (1 to 530 residues) at 10 uM using GGEEEEYFELVKKKK as substrate measured after 40 mins in presence of [gamma33P]ATP by scintillation counting method relative to control
[9] = molecular target: Serine/threonine-protein kinase Chk2 (Homo sapiens) (UniProt O96017); experiment: Inhibition of recombinant human CHK2 (5 to end residues) at 10 uM using KKKVSRSGLYRSPSMPENLNRPR as substrate measured after 40 mins in presence of [gamma33P]ATP by scintillation counting method relative to control
[10] = molecular target: Ribosomal protein S6 kinase alpha-4 (Homo sapiens) (UniProt O75676); experiment: Inhibition of recombinant human MSK2 (2 to end residues) at 10 uM using GRPRTSSFAEGKK as substrate measured after 40 mins in presence of [gamma33P]ATP by scintillation counting method relative to control
Homo sapiens [11] = species: Homo sapiens; experiment: Inhibition of recombinant full-length human ATRIP/ATR M211T mutant at 10 uM using GST-cMyc-p53 as substrate measured after 40 mins by fluorescence assay relative to control
[12] = molecular target: Tyrosine-protein kinase Fgr (Homo sapiens) (UniProt P09769); experiment: Inhibition of recombinant human FGR (2 to end residues) at 10 uM using poly(Glu, Tyr) 4:1 as substrate after 40 mins in presence of [gamma33P]ATP by scintillation counting method relative to control
[13] = molecular target: Mitogen-activated protein kinase 14 (Homo sapiens) (UniProt Q16539); experiment: Inhibition of recombinant full-length human SAPK2a at 10 uM using myelin basic protein as substrate measured after 40 mins in presence of [gamma33P]ATP by scintillation counting method relative to control
[14] = molecular target: Tyrosine-protein kinase ZAP-70 (Homo sapiens) (UniProt P43403); experiment: Inhibition of recombinant full-length human ZAP70 at 10 uM using poly(Glu, Tyr) 4:1 as substrate measured after 40 mins in presence of [gamma33P]ATP by scintillation counting method5 relative to control
[15] = molecular target: N-lysine methyltransferase SMYD2 (Homo sapiens) (UniProt Q9NRG4); experiment: Inhibition of human SMYD2 at 10 uM relative to control
[16] = test system: Phosphorylase b kinase gamma catalytic chain, liver/testis isoform (Homo sapiens), P15735 [F290L]; experiment: Inhibition of recombinant human PhKgamma2 F290L mutant (1 to 301 residues) at 10 uM using KKLNRTLSFAEPG as substrate measured after 40 mins in presence of [gamma33P]ATP by scintillation counting method relative to control
[17] = molecular target: CDK3/Cyclin E (Homo sapiens) (UniProt P24864+Q00526); experiment: Inhibition of recombinant full-length human CDK3/cyclinE at 10 uM using histone H1 as substrate measured after 40 mins in presence of [gamma33P]ATP by scintillation counting method relative to control; format: protein-complex assay
[18] = molecular target: Rhodopsin kinase GRK1 (Homo sapiens) (UniProt Q15835); experiment: Inhibition of full length recombinant human GRK1 at 10 uM using KKKKERLLDDRHDSGLDSMKDEE as substrate after 40 mins in presence of [gamma33P]ATP by scintillation counting method relative to control
[19] = molecular target: Protein kinase C alpha type (Homo sapiens) (UniProt P17252); experiment: Inhibition of full-length recombinant human PKCalpha at 10 uM using histone H1 as substrate after 40 mins by in presence of [gamma33P]ATP by scintillation counting method relative to control
[20] = molecular target: Protein kinase C iota type (Homo sapiens) (UniProt P41743); experiment: Inhibition of full-length recombinant human PKCiota at 10 uM using ERMRPRKRQGSVRRRV as substrate after 40 mins by in presence of [gamma33P]ATP by scintillation counting method relative to control
[21] = molecular target: Protein arginine N-methyltransferase 6 (Homo sapiens) (UniProt Q96LA8); experiment: Inhibition of human PRMT6 at 10 uM relative to control
[22] = molecular target: T1, Transcriptional enhancer factor TEF-3; experiment: Binding affinity to N-terminal His6-tagged human TEAD4-YBD (217 to 434 residues) expressed in Escherichia coli C43 (DE3) cells assessed as change in melting temperature at 1:2 ratio by SYPRO-dye based thermal shift assay
[23] = molecular target: CDK6/cyclin D3 (Homo sapiens) (UniProt P30281+Q00534); experiment: Inhibition of recombinant full-length human CDK6/cyclinD3 at 10 uM using histone H1 as substrate measured after 40 mins in presence of [gamma33P]ATP by scintillation counting method relative to control; format: protein-complex assay
Homo sapiens [24] = species: Homo sapiens; experiment: Inhibition of recombinant human TEC activated F514V mutant (174 to end residues) at 10 uM using EFPIYDFLPAKKK as substrate measured after 40 mins in presence of [gamm33P]ATP by scintillation counting method relative to control

T1 sequence (Q15561 whole entry, the tested form may be a part): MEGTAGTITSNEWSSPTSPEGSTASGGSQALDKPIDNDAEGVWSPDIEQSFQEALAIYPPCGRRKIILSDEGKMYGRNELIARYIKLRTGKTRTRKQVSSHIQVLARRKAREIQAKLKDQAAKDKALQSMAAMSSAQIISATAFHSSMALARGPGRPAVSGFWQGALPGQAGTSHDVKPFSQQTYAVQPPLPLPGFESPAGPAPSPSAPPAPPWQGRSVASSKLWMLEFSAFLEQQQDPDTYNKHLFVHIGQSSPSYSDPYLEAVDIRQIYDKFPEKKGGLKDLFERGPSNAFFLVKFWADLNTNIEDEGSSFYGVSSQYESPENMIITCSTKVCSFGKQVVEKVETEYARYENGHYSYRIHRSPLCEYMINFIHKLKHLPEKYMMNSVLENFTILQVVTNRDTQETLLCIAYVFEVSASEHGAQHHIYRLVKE
Chain of Calcium/calmodulin-dependent protein kinase type IV (Homo sapiens) (Q16566 whole entry): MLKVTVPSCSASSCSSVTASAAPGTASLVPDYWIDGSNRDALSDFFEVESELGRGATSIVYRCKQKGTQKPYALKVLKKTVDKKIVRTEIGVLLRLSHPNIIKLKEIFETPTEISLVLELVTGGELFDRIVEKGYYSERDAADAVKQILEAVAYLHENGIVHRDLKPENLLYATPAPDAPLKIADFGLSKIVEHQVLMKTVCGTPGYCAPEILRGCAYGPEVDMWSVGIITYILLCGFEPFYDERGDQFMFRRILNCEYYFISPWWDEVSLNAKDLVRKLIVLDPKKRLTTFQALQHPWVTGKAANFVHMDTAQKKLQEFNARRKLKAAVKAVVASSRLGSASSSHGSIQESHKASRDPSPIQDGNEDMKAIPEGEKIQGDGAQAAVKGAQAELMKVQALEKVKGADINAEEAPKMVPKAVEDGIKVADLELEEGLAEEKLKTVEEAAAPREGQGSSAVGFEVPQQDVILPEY
Chain of Tyrosine-protein kinase JAK3 (Homo sapiens) (P52333 whole entry): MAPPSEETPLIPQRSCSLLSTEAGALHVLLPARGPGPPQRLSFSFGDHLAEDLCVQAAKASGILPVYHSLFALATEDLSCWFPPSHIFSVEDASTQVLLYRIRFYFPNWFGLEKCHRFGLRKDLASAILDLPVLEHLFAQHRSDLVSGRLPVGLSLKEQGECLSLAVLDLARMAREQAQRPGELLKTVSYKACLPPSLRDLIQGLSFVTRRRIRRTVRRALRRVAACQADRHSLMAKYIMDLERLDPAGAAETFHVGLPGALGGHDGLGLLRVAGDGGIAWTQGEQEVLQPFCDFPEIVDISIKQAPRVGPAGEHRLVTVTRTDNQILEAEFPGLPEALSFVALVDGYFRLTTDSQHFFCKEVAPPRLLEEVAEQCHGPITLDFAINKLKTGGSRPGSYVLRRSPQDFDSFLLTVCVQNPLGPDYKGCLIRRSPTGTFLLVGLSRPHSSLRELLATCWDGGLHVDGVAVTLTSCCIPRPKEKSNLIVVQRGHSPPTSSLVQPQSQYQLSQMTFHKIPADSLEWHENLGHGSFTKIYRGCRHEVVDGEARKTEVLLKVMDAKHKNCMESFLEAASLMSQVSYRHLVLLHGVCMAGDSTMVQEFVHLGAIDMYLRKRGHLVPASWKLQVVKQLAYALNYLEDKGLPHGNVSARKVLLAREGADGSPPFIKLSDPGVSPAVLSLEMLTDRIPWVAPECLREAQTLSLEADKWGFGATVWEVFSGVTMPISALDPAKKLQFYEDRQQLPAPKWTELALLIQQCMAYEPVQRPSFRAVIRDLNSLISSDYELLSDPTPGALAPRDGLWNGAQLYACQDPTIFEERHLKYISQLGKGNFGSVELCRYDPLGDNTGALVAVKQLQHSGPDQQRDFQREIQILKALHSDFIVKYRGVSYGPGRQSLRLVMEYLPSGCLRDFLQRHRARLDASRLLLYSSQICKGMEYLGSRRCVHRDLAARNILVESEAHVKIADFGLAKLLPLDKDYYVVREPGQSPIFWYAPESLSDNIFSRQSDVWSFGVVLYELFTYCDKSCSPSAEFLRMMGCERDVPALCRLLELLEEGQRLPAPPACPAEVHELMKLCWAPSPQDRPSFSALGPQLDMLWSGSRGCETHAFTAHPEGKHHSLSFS
Chain of CDK3/Cyclin E (Homo sapiens) (P24864 whole entry, looked up): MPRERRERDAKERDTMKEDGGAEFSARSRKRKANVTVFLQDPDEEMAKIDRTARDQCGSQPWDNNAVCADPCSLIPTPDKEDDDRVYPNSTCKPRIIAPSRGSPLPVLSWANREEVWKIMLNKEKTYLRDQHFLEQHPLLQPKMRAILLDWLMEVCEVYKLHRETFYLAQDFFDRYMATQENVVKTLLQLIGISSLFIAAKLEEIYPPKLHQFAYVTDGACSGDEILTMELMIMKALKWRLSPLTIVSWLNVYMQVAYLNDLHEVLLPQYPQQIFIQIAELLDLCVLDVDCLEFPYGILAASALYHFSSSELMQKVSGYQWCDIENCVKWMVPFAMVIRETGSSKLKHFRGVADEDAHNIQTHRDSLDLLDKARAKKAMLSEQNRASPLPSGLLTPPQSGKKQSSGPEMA
Chain of CDK3/Cyclin E (Homo sapiens) (Q00526 whole entry, looked up): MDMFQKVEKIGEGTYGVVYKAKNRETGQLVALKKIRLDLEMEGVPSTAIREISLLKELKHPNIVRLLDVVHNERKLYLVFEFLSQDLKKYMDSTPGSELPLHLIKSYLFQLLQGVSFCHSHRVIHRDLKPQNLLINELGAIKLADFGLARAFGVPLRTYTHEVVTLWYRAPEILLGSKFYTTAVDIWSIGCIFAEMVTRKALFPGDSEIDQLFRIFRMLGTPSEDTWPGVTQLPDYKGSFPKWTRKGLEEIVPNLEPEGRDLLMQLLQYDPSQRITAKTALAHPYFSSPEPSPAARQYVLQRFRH
Chain of Ribosomal protein S6 kinase alpha-4 (Homo sapiens) (O75676 whole entry, looked up): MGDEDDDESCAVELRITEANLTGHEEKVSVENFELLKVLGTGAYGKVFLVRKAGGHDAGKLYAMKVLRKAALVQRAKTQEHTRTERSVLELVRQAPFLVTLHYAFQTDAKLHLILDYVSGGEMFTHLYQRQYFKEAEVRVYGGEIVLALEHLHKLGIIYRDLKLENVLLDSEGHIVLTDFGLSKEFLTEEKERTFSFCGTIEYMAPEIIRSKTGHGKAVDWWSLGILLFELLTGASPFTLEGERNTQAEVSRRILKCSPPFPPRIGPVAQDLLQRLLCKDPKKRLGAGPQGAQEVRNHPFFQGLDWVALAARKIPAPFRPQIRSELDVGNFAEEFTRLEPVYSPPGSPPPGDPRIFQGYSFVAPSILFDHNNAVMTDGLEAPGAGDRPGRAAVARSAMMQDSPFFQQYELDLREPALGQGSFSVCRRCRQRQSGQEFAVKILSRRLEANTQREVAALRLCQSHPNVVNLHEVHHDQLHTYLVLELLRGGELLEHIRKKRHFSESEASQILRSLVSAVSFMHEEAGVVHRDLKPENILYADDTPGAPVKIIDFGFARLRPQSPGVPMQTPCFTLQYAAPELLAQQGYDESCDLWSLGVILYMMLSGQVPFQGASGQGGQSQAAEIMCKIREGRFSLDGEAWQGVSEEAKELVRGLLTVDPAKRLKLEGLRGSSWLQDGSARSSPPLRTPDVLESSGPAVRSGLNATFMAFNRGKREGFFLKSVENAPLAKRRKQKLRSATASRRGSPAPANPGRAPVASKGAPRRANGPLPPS
Chain of Mitogen-activated protein kinase 14 (Homo sapiens) (Q16539 whole entry): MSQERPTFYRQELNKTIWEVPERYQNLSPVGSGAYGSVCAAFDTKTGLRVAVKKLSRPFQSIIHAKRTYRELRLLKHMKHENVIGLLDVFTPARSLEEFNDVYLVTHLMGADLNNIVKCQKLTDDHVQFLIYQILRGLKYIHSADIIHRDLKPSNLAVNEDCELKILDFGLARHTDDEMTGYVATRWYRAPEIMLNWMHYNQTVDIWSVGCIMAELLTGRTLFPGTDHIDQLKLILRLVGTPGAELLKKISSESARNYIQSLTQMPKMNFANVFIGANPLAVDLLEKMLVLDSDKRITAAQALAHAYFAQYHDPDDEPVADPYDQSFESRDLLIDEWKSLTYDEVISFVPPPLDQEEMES
Chain of Proto-oncogene tyrosine-protein kinase Src (Homo sapiens) (P12931 2-536 limits assumed): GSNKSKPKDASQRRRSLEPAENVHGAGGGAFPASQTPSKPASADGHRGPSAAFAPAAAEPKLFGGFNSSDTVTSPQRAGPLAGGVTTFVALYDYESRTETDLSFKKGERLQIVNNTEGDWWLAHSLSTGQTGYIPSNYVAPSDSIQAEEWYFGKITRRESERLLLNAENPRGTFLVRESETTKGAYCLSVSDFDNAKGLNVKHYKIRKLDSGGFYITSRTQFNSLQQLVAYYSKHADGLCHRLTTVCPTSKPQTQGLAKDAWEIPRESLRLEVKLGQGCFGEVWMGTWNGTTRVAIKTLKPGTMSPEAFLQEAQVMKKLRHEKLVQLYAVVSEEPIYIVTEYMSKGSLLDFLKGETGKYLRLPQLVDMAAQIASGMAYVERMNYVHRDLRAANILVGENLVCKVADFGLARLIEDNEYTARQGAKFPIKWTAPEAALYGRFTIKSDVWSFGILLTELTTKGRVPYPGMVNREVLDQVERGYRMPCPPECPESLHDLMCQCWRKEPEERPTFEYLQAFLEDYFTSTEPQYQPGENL
Chain of Rhodopsin kinase GRK1 (Homo sapiens) (Q15835 whole entry): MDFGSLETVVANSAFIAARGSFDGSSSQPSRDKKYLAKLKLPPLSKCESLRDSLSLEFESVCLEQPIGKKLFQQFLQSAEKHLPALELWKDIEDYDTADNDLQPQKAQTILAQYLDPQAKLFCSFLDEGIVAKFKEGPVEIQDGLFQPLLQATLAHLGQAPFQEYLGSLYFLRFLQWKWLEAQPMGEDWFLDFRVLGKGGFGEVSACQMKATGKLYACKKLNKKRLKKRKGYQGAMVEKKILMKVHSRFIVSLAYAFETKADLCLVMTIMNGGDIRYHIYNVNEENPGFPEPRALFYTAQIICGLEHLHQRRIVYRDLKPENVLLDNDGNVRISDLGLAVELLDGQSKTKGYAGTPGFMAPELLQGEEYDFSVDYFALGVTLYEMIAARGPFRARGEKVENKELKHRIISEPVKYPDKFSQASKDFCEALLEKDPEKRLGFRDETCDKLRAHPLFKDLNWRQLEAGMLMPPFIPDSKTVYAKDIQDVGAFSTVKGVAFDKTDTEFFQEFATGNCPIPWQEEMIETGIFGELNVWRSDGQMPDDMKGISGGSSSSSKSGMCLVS

SMILES: C=CS(=O)(=O)Nc1ccc(Cc2ccc3ccccc3c2)cc1
- inhibition [1]: 5%
- inhibition [2]: -4%
- inhibition [3]: 2%
- inhibition [4]: 2%
- inhibition [5]: -6%
- IC50 [6]: 197 nM
- Activity [7]: Active
- inhibition [8]: 17%
- inhibition [9]: -7%
- inhibition [10]: 12%
- inhibition (Homo sapiens [11]): 3%
- inhibition [12]: 15%
- inhibition [13]: 10%
- inhibition [14]: 5%
- inhibition [15]: 3%
- inhibition [16]: 6%
- inhibition [17]: 7%
- inhibition [18]: 7%
- inhibition [19]: 3%
- inhibition [20]: 5%
- inhibition [21]: 7%
- ΔTm [22]: 7.4 °C
- inhibition [23]: -1%
- inhibition (Homo sapiens [24]): -8%
